Data: patent publication US20220281848A1, “PYRAZOLE-SUBSTITUTED PYRROLIDINONES AS HERBICIDES” (FMC Corporation, priority 2019, published 2022)

Test system: plants
Assay: Test D pre-emergence, other plants of Tables D1 and D3
Assay type: in vivo
Conditions: preemergent, 20 DAA
Experimental: A formulation containing 50 g/L of the test chemical was prepared by dissolving the active ingredient in a mixture of organic solvents and emulsifier, details of which are provided in the table. This formulation was then mixed with a small, variable amount of acetone to aid dissolution, before addition of a 0.2% v/v aqueous solution of an adjuvant, as the aqueous diluent, to form an aqueous spray solution which contains a predetermined concentration of the active ingredient.
This aqueous spray solution was then sprayed onto plants including maize and wheat that had been seed treated with a herbicide safener, after one day's cultivation (for pre-emergence) or after about 12 days' cultivation (for post-emergence). The plants were grown from seeds sown in standard soil, placed in a glasshouse under controlled conditions (at 24/18° C. or 20/16° C., day/night; 16 h light; 65% humidity). After spray application the plants were then grown in a glasshouse under the same conditions and watered twice daily. After 15 d for post-emergence and 20 DAA for pre-emergence the test was evaluated (100=total damage to plant; 0=no damage to plant).

## COc1c(F)cccc1NC(=O)C1C(=O)N(C)CC1c1cc(C(F)(F)F)n(C)n1 (racemic) [Compound 18]
Rate 15
  damage to plant (100=total damage to plant; 0=no damage to plant), ABUTH: 0
  damage to plant (100=total damage to plant; 0=no damage to plant), AMARE: 0
  damage to plant (100=total damage to plant; 0=no damage to plant), BIDPI: 0
  damage to plant (100=total damage to plant; 0=no damage to plant), BRAPL: 10
  damage to plant (100=total damage to plant; 0=no damage to plant), CYPES: 0
  damage to plant (100=total damage to plant; 0=no damage to plant), DIGSA: 0
  damage to plant (100=total damage to plant; 0=no damage to plant), ECHCG: 0
  damage to plant (100=total damage to plant; 0=no damage to plant), ELEIN: 0
  damage to plant (100=total damage to plant; 0=no damage to plant), EPHHL: 0
  damage to plant (100=total damage to plant; 0=no damage to plant), GLXMA: 0
  damage to plant (100=total damage to plant; 0=no damage to plant), IPOHE: 0
  damage to plant (100=total damage to plant; 0=no damage to plant), ORYSA: 0
  damage to plant (100=total damage to plant; 0=no damage to plant), PANMI: 0
  damage to plant (100=total damage to plant; 0=no damage to plant), SETFA: 0
  damage to plant (100=total damage to plant; 0=no damage to plant), SORVU: 0
Rate 30
  damage to plant (100=total damage to plant; 0=no damage to plant), ABUTH: 0
  damage to plant (100=total damage to plant; 0=no damage to plant), AMARE: 0
  damage to plant (100=total damage to plant; 0=no damage to plant), BIDPI: 0
  damage to plant (100=total damage to plant; 0=no damage to plant), BRAPL: 60
  damage to plant (100=total damage to plant; 0=no damage to plant), CYPES: 0
  damage to plant (100=total damage to plant; 0=no damage to plant), DIGSA: 80
  damage to plant (100=total damage to plant; 0=no damage to plant), ECHCG: 30
  damage to plant (100=total damage to plant; 0=no damage to plant), ELEIN: 0
  damage to plant (100=total damage to plant; 0=no damage to plant), EPHHL: 0
  damage to plant (100=total damage to plant; 0=no damage to plant), GLXMA: 0
  damage to plant (100=total damage to plant; 0=no damage to plant), IPOHE: 0
  damage to plant (100=total damage to plant; 0=no damage to plant), ORYSA: 0
  damage to plant (100=total damage to plant; 0=no damage to plant), PANMI: 0
  damage to plant (100=total damage to plant; 0=no damage to plant), SETFA: 0
  damage to plant (100=total damage to plant; 0=no damage to plant), SORVU: 0
Rate 60
  damage to plant (100=total damage to plant; 0=no damage to plant), ABUTH: 0
  damage to plant (100=total damage to plant; 0=no damage to plant), AMARE: 0
  damage to plant (100=total damage to plant; 0=no damage to plant), BIDPI: 0
  damage to plant (100=total damage to plant; 0=no damage to plant), BRAPL: 70
  damage to plant (100=total damage to plant; 0=no damage to plant), CYPES: 0
  damage to plant (100=total damage to plant; 0=no damage to plant), DIGSA: 90
  damage to plant (100=total damage to plant; 0=no damage to plant), ECHCG: 70
  damage to plant (100=total damage to plant; 0=no damage to plant), ELEIN: 0
  damage to plant (100=total damage to plant; 0=no damage to plant), EPHHL: 0
  damage to plant (100=total damage to plant; 0=no damage to plant), GLXMA: 0
  damage to plant (100=total damage to plant; 0=no damage to plant), IPOHE: 0
  damage to plant (100=total damage to plant; 0=no damage to plant), ORYSA: 0
  damage to plant (100=total damage to plant; 0=no damage to plant), PANMI: 0
  damage to plant (100=total damage to plant; 0=no damage to plant), SETFA: 80
  damage to plant (100=total damage to plant; 0=no damage to plant), SORVU: 0
Rate 130
  damage to plant (100=total damage to plant; 0=no damage to plant), ABUTH: 0
  damage to plant (100=total damage to plant; 0=no damage to plant), AMARE: 0
  damage to plant (100=total damage to plant; 0=no damage to plant), BIDPI: 0
  damage to plant (100=total damage to plant; 0=no damage to plant), BRAPL: 80
  damage to plant (100=total damage to plant; 0=no damage to plant), CYPES: 0
  damage to plant (100=total damage to plant; 0=no damage to plant), DIGSA: 90
  damage to plant (100=total damage to plant; 0=no damage to plant), ECHCG: 90
  damage to plant (100=total damage to plant; 0=no damage to plant), ELEIN: 0
  damage to plant (100=total damage to plant; 0=no damage to plant), EPHHL: 0
  damage to plant (100=total damage to plant; 0=no damage to plant), GLXMA: 0
  damage to plant (100=total damage to plant; 0=no damage to plant), IPOHE: 0
  damage to plant (100=total damage to plant; 0=no damage to plant), ORYSA: 0
  damage to plant (100=total damage to plant; 0=no damage to plant), PANMI: 0
  damage to plant (100=total damage to plant; 0=no damage to plant), SETFA: 90
  damage to plant (100=total damage to plant; 0=no damage to plant), SORVU: 0
Rate 250
  damage to plant (100=total damage to plant; 0=no damage to plant), ABUTH: 10
  damage to plant (100=total damage to plant; 0=no damage to plant), AMARE: 0
  damage to plant (100=total damage to plant; 0=no damage to plant), BIDPI: 0
  damage to plant (100=total damage to plant; 0=no damage to plant), BRAPL: 80
  damage to plant (100=total damage to plant; 0=no damage to plant), CYPES: 0
  damage to plant (100=total damage to plant; 0=no damage to plant), DIGSA: 90
  damage to plant (100=total damage to plant; 0=no damage to plant), ECHCG: 90
  damage to plant (100=total damage to plant; 0=no damage to plant), ELEIN: 0
  damage to plant (100=total damage to plant; 0=no damage to plant), EPHHL: 10
  damage to plant (100=total damage to plant; 0=no damage to plant), GLXMA: 0
  damage to plant (100=total damage to plant; 0=no damage to plant), IPOHE: 0
  damage to plant (100=total damage to plant; 0=no damage to plant), ORYSA: 0
  damage to plant (100=total damage to plant; 0=no damage to plant), PANMI: 0
  damage to plant (100=total damage to plant; 0=no damage to plant), SETFA: 90
  damage to plant (100=total damage to plant; 0=no damage to plant), SORVU: 0
Rate 500
  damage to plant (100=total damage to plant; 0=no damage to plant), ABUTH: 30
  damage to plant (100=total damage to plant; 0=no damage to plant), AMARE: 0
  damage to plant (100=total damage to plant; 0=no damage to plant), BIDPI: 0
  damage to plant (100=total damage to plant; 0=no damage to plant), BRAPL: 90
  damage to plant (100=total damage to plant; 0=no damage to plant), CYPES: 0
  damage to plant (100=total damage to plant; 0=no damage to plant), DIGSA: 100
  damage to plant (100=total damage to plant; 0=no damage to plant), ECHCG: 90
  damage to plant (100=total damage to plant; 0=no damage to plant), ELEIN: 0
  damage to plant (100=total damage to plant; 0=no damage to plant), EPHHL: 20
  damage to plant (100=total damage to plant; 0=no damage to plant), GLXMA: 0
  damage to plant (100=total damage to plant; 0=no damage to plant), IPOHE: 0
  damage to plant (100=total damage to plant; 0=no damage to plant), ORYSA: 0
  damage to plant (100=total damage to plant; 0=no damage to plant), PANMI: 0
  damage to plant (100=total damage to plant; 0=no damage to plant), SETFA: 90
  damage to plant (100=total damage to plant; 0=no damage to plant), SORVU: 10
